Data published in the kinase profiling compilation of Christmann-Franck et al. (2016).
Blank lines part the entries; values can stand above or below the molecule they belong to.

What was measured:
Assay in all cases: radiometric filter-binding kinase assay
[1] = system: AKT1 (human), P31749 [S473D]
AURKB (human) = AURKB (human) (UniProt Q96GD4)
CDK2 CCNA2 (human) = CDK2 CCNA2 (human) (UniProt P20248+P24941)
CHEK1 (human) = CHEK1 (human) (UniProt O14757)
CHEK2 (human) = CHEK2 (human) (UniProt O96017)
CHEK2 (human), sequence (O96017 whole entry, looked up): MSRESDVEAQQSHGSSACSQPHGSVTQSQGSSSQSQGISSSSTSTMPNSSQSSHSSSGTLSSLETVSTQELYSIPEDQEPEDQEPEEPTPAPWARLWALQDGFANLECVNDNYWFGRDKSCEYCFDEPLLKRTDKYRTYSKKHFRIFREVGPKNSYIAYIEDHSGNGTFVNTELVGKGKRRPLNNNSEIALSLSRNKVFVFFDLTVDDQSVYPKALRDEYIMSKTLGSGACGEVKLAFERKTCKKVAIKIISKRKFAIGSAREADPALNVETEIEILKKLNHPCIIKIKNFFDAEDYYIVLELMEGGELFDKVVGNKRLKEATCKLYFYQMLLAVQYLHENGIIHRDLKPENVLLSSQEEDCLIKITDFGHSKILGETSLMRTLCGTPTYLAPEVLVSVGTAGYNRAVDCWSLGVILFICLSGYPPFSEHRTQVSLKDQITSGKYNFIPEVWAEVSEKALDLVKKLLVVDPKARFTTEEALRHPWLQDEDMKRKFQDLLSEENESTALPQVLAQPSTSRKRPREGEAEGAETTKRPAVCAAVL

CSK (human) = CSK (human) (UniProt P41240)
CaMK1 (human) = CaMK1 (human) (UniProt Q14012)
DYRK3 (human) = DYRK3 (human) (UniProt O43781)
EPHA2 (human) = EPHA2 (human) (UniProt P29317)
EPHA4 (human) = EPHA4 (human) (UniProt P54764)
EPHB1 (human) = EPHB1 (human) (UniProt P54762)
EPHB2 (human) = EPHB2 (human) (UniProt P29323)
EPHB3 (human) = EPHB3 (human) (UniProt P54753)
EPHB3 (human), sequence (P54753 whole entry, looked up): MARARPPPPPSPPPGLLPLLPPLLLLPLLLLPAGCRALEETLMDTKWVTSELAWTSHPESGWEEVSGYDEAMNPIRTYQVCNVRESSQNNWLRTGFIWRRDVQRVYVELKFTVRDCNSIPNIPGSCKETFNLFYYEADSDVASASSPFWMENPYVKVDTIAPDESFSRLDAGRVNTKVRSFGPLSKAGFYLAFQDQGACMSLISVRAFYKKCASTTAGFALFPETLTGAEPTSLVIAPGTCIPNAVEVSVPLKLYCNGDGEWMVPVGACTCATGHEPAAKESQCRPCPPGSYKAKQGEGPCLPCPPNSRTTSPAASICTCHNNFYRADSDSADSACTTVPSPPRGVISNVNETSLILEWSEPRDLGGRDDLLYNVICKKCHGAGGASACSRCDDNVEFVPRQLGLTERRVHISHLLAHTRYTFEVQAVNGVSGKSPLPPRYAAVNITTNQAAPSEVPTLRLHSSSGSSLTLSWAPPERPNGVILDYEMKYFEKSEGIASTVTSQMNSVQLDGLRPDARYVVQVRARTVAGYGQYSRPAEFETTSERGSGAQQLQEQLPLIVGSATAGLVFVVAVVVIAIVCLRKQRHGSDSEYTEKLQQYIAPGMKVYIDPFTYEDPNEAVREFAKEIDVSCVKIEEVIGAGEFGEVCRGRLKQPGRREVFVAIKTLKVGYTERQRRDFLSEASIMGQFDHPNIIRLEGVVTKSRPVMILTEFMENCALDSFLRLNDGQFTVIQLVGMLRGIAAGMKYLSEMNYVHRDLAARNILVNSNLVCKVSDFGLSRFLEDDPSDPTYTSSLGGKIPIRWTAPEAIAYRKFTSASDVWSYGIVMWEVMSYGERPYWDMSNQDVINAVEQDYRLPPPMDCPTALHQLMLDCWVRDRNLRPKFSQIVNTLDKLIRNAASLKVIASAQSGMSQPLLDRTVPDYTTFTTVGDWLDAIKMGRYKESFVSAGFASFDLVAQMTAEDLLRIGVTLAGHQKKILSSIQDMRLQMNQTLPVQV

GCK (human) = GCK (human) (UniProt Q12851)
GCK (human), sequence (Q12851 whole entry, looked up): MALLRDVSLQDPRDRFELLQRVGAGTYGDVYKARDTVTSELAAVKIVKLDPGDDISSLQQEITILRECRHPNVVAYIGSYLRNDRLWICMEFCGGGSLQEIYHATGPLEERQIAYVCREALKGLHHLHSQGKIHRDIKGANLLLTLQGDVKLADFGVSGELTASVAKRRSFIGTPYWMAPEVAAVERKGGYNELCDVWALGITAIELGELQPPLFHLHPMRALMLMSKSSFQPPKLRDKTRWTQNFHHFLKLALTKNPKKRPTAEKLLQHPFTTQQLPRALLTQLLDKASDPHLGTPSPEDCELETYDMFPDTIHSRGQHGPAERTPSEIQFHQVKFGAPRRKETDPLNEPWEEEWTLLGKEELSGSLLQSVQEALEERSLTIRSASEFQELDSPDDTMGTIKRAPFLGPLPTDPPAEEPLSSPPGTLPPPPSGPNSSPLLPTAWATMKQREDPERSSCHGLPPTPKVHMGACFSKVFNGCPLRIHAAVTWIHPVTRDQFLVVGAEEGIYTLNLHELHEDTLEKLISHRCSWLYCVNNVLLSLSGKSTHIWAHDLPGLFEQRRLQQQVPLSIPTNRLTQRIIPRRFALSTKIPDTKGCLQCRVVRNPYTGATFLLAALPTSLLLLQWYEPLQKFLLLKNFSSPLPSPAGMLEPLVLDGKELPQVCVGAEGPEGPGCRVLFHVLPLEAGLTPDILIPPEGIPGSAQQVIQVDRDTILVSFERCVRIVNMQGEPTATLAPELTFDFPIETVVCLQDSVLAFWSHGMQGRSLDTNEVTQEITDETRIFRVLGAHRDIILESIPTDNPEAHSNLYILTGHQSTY

IKBKB (human) = IKBKB (human) (UniProt O14920)
LCK (mouse) = conditions: accession and sequence are those of the human protein
MAP2K1 (human) = MAP2K1 (human) (UniProt Q02750)
MAP2K1 (human), sequence (Q02750 whole entry, looked up): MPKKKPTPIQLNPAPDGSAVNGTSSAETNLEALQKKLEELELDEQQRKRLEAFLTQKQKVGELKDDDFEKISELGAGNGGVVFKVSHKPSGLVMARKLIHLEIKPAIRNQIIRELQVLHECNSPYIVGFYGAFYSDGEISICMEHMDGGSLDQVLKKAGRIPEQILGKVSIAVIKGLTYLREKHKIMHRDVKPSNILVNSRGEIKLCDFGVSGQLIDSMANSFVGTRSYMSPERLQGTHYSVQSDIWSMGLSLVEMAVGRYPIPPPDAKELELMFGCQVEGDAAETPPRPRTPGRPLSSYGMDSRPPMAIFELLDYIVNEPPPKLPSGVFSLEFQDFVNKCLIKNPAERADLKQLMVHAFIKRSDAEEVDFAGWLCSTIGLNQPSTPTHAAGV

MAP3K11 (human) = MAP3K11 (human) (UniProt Q16584)
MAP3K7 TAB1 (human) = MAP3K7 TAB1 (human) (UniProt Q15750+O43318)
MAPK10 (human) = MAPK10 (human) (UniProt P53779)
MAPK8 (human) = MAPK8 (human) (UniProt P45983)
MAPK8 (human), sequence (P45983 whole entry, looked up): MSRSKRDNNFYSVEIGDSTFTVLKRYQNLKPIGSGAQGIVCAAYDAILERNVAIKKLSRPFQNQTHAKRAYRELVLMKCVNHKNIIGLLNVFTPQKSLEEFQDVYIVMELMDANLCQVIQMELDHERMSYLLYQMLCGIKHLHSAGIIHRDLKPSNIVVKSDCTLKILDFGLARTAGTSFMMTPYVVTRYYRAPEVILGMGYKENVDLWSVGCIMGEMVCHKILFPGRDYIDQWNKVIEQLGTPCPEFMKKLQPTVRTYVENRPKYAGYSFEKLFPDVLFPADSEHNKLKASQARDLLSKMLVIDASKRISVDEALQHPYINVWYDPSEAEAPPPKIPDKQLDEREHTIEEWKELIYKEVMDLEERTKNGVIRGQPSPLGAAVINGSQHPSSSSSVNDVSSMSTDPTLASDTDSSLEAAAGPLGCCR

MARK2 (human) = MARK2 (human) (UniProt Q7KZI7)
MINK1 (human) = MINK1 (human) (UniProt Q8N4C8)
MST4 (human) = MST4 (human) (UniProt Q9P289)
MYLK (human) = MYLK (human) (UniProt Q15746)
MYLK (human), sequence (Q15746 whole entry, looked up): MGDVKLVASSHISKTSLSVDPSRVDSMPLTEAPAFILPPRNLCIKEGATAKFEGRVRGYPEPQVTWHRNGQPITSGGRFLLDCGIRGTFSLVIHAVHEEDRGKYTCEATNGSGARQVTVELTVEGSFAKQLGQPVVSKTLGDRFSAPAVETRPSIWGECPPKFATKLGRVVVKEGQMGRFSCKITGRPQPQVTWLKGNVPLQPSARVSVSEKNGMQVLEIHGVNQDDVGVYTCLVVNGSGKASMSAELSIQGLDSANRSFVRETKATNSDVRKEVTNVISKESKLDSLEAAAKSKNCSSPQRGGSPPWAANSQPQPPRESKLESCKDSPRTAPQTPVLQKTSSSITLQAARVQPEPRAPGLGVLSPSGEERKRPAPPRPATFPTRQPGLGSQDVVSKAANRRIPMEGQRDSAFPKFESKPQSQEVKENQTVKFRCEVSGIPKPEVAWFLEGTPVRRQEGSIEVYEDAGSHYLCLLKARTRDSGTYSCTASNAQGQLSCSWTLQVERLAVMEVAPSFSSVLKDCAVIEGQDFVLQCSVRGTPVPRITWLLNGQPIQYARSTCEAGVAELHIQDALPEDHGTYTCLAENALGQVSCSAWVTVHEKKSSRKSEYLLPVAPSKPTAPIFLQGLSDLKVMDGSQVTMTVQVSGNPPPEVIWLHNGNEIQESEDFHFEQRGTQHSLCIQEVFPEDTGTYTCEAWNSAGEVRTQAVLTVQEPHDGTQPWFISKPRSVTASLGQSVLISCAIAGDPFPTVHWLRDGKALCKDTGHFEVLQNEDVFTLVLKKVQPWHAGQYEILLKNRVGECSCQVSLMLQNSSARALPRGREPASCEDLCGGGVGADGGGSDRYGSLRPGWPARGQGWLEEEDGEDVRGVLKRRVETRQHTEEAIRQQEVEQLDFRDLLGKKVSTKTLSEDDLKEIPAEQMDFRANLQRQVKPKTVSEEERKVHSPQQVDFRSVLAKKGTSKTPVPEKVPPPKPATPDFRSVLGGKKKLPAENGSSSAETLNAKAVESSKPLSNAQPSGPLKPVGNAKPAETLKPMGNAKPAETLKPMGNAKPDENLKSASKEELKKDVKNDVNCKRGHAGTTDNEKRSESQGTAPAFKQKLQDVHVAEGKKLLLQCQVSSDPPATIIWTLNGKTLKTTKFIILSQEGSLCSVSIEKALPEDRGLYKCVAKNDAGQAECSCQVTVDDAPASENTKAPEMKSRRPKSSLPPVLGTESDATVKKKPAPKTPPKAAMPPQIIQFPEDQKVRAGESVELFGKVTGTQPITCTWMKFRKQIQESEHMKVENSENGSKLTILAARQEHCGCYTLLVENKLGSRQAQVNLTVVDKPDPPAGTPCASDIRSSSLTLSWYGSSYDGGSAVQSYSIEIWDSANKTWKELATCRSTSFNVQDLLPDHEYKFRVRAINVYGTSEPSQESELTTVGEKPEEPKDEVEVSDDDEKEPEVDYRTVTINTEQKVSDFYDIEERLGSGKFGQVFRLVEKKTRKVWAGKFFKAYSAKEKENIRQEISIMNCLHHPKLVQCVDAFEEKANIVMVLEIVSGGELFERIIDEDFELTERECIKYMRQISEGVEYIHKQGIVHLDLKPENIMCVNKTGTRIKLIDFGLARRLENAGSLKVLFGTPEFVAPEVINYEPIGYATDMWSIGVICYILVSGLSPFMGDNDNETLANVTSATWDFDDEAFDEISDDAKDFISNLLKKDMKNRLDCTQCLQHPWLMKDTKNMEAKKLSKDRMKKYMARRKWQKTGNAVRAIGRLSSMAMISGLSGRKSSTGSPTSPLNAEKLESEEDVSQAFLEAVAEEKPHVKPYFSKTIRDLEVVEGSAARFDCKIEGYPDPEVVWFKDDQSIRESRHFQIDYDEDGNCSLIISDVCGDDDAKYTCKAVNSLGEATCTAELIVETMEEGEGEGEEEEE

NUAK1 (human) = NUAK1 (human) (UniProt O60285)
[2] = system: PAK2 (human), Q13177 [T402E]
PAK4 (human) = PAK4 (human) (UniProt O96013)
PAK6 (human) = PAK6 (human) (UniProt Q9NQU5)
PKN2 (human) = PKN2 (human) (UniProt Q16513)
ROCK2 (rat) = conditions: accession and sequence are those of the human protein
RPS6KA3 KD1 KD2 (human) = RPS6KA3 KD1 KD2 (human) (UniProt P51812)
SRC (human) = SRC (human) (UniProt P12931)
TAOK1 (human) = TAOK1 (human) (UniProt Q7L7X3)
TBK1 (human) = TBK1 (human) (UniProt Q9UHD2)
TTK (human) = TTK (human) (UniProt P33981)

residual activity ([1]; compound 1.0 µM): 106% | residual activity ([1]; compound 10.0 µM): 99% | residual activity (AURKB (human); compound 1.0 µM): 62% | residual activity (AURKB (human); compound 10.0 µM): 8% | residual activity (CDK2 CCNA2 (human); compound 1.0 µM): 89% | residual activity (CDK2 CCNA2 (human); compound 10.0 µM): 32% | residual activity (CHEK1 (human); compound 1.0 µM): 92% | residual activity (CHEK1 (human); compound 10.0 µM): 32% | residual activity (CHEK2 (human); compound 1.0 µM): 48% | residual activity (CHEK2 (human); compound 10.0 µM): 5% | residual activity (CSK (human); compound 1.0 µM): 125% | residual activity (CSK (human); compound 10.0 µM): 74% | residual activity (CaMK1 (human); compound 1.0 µM): 49% | residual activity (CaMK1 (human); compound 10.0 µM): 19% | residual activity (DYRK3 (human); compound 1.0 µM): 59% | residual activity (DYRK3 (human); compound 10.0 µM): 2% | residual activity (EPHA2 (human); compound 1.0 µM): 94% | residual activity (EPHA2 (human); compound 10.0 µM): 73% | residual activity (EPHA4 (human); compound 1.0 µM): 117% | residual activity (EPHA4 (human); compound 10.0 µM): 74% | residual activity (EPHB1 (human); compound 1.0 µM): 85% | residual activity (EPHB2 (human); compound 1.0 µM): 69% | residual activity (EPHB3 (human); compound 1.0 µM): 93% | residual activity (EPHB3 (human); compound 10.0 µM): 61% | residual activity (GCK (human); compound 1.0 µM): 93% | residual activity (GCK (human); compound 10.0 µM): 23% | residual activity (IKBKB (human); compound 1.0 µM): 100% | residual activity (IKBKB (human); compound 10.0 µM): 16% | residual activity (LCK (mouse); compound 1.0 µM): 102% | residual activity (LCK (mouse); compound 10.0 µM): 95% | residual activity (MAP2K1 (human); compound 1.0 µM): 84% | residual activity (MAP2K1 (human); compound 10.0 µM): 24% | residual activity (MAP3K11 (human); compound 1.0 µM): 62% | residual activity (MAP3K11 (human); compound 10.0 µM): 16% | residual activity (MAP3K7 TAB1 (human); compound 1.0 µM): 94% | residual activity (MAP3K7 TAB1 (human); compound 10.0 µM): 5% | residual activity (MAPK10 (human); compound 1.0 µM): 107% | residual activity (MAPK10 (human); compound 10.0 µM): 89% | residual activity (MAPK8 (human); compound 1.0 µM): 93% | residual activity (MAPK8 (human); compound 10.0 µM): 93% | residual activity (MARK2 (human); compound 1.0 µM): 86% | residual activity (MARK2 (human); compound 10.0 µM): 26% | residual activity (MINK1 (human); compound 1.0 µM): 56% | residual activity (MINK1 (human); compound 10.0 µM): 10% | residual activity (MST4 (human); compound 1.0 µM): 87% | residual activity (MST4 (human); compound 10.0 µM): 58% | residual activity (MYLK (human); compound 1.0 µM): 87% | residual activity (MYLK (human); compound 10.0 µM): 23% | residual activity (NUAK1 (human); compound 1.0 µM): 33% | residual activity (NUAK1 (human); compound 10.0 µM): 12% | residual activity ([2]; compound 1.0 µM): 96% | residual activity ([2]; compound 10.0 µM): 98% | residual activity (PAK4 (human); compound 1.0 µM): 50% | residual activity (PAK4 (human); compound 10.0 µM): 38% | residual activity (PAK6 (human); compound 1.0 µM): 58% | residual activity (PAK6 (human); compound 10.0 µM): 60% | residual activity (PKN2 (human); compound 1.0 µM): 106% | residual activity (PKN2 (human); compound 10.0 µM): 102% | residual activity (ROCK2 (rat); compound 1.0 µM): 95% | residual activity (ROCK2 (rat); compound 10.0 µM): 56% | residual activity (RPS6KA3 KD1 KD2 (human); compound 1.0 µM): 22% | residual activity (RPS6KA3 KD1 KD2 (human); compound 10.0 µM): 12% | residual activity (SRC (human); compound 1.0 µM): 38% | residual activity (SRC (human); compound 10.0 µM): 25% | residual activity (TAOK1 (human); compound 1.0 µM): 94% | residual activity (TBK1 (human); compound 1.0 µM): 54% | residual activity (TBK1 (human); compound 10.0 µM): 64% | residual activity (TTK (human); compound 1.0 µM): 75% | residual activity (TTK (human); compound 10.0 µM): 36%
SMILES: O=c1c(O)c(-c2ccc(O)c(O)c2)oc2cc(O)c(O)c(O)c12

residual activity ([1]; compound 0.1 µM): 102% | residual activity ([1]; compound 1.0 µM): 98% | residual activity (AURKB (human); compound 0.1 µM): 87% | residual activity (AURKB (human); compound 1.0 µM): 86% | residual activity (CDK2 CCNA2 (human); compound 0.1 µM): 107% | residual activity (CDK2 CCNA2 (human); compound 1.0 µM): 92% | residual activity (CHEK1 (human); compound 0.1 µM): 102% | residual activity (CHEK1 (human); compound 1.0 µM): 87% | residual activity (CHEK2 (human); compound 0.1 µM): 102% | residual activity (CHEK2 (human); compound 1.0 µM): 72% | residual activity (CSK (human); compound 0.1 µM): 110% | residual activity (CSK (human); compound 1.0 µM): 93% | residual activity (CaMK1 (human); compound 0.1 µM): 92% | residual activity (CaMK1 (human); compound 1.0 µM): 86% | residual activity (DYRK3 (human); compound 0.1 µM): 94% | residual activity (DYRK3 (human); compound 1.0 µM): 80% | residual activity (EPHA2 (human); compound 0.1 µM): 118% | residual activity (EPHA2 (human); compound 1.0 µM): 111% | residual activity (EPHA4 (human); compound 0.1 µM): 87% | residual activity (EPHA4 (human); compound 1.0 µM): 80% | residual activity (EPHB1 (human); compound 0.1 µM): 97% | residual activity (EPHB1 (human); compound 1.0 µM): 95% | residual activity (EPHB2 (human); compound 0.1 µM): 101% | residual activity (EPHB2 (human); compound 1.0 µM): 97% | residual activity (EPHB3 (human); compound 1.0 µM): 105% | residual activity (GCK (human); compound 0.1 µM): 98% | residual activity (GCK (human); compound 1.0 µM): 73% | residual activity (IKBKB (human); compound 0.1 µM): 62% | residual activity (IKBKB (human); compound 1.0 µM): 74% | residual activity (LCK (mouse); compound 0.1 µM): 96% | residual activity (LCK (mouse); compound 1.0 µM): 92% | residual activity (MAP2K1 (human); compound 0.1 µM): 107% | residual activity (MAP2K1 (human); compound 1.0 µM): 96% | residual activity (MAP3K11 (human); compound 0.1 µM): 95% | residual activity (MAP3K11 (human); compound 1.0 µM): 94% | residual activity (MAP3K7 TAB1 (human); compound 0.1 µM): 90% | residual activity (MAP3K7 TAB1 (human); compound 1.0 µM): 66% | residual activity (MAPK10 (human); compound 0.1 µM): 14% | residual activity (MAPK10 (human); compound 1.0 µM): 13% | residual activity (MAPK8 (human); compound 0.1 µM): 13% | residual activity (MAPK8 (human); compound 1.0 µM): 6% | residual activity (MARK2 (human); compound 0.1 µM): 99% | residual activity (MARK2 (human); compound 1.0 µM): 85% | residual activity (MINK1 (human); compound 0.1 µM): 94% | residual activity (MINK1 (human); compound 1.0 µM): 78% | residual activity (MST4 (human); compound 0.1 µM): 96% | residual activity (MST4 (human); compound 1.0 µM): 79% | residual activity (MYLK (human); compound 0.1 µM): 97% | residual activity (MYLK (human); compound 1.0 µM): 96% | residual activity (NUAK1 (human); compound 0.1 µM): 79% | residual activity (NUAK1 (human); compound 1.0 µM): 49% | residual activity ([2]; compound 0.1 µM): 99% | residual activity ([2]; compound 1.0 µM): 90% | residual activity (PAK4 (human); compound 1.0 µM): 78% | residual activity (PAK6 (human); compound 0.1 µM): 110% | residual activity (PAK6 (human); compound 1.0 µM): 96% | residual activity (PKN2 (human); compound 0.1 µM): 112% | residual activity (PKN2 (human); compound 1.0 µM): 95% | residual activity (ROCK2 (rat); compound 0.1 µM): 86% | residual activity (ROCK2 (rat); compound 1.0 µM): 80% | residual activity (RPS6KA3 KD1 KD2 (human); compound 0.1 µM): 82% | residual activity (RPS6KA3 KD1 KD2 (human); compound 1.0 µM): 76% | residual activity (SRC (human); compound 0.1 µM): 85% | residual activity (SRC (human); compound 1.0 µM): 50% | residual activity (TAOK1 (human); compound 0.1 µM): 124% | residual activity (TAOK1 (human); compound 1.0 µM): 97% | residual activity (TBK1 (human); compound 1.0 µM): 106% | residual activity (TTK (human); compound 0.1 µM): 85% | residual activity (TTK (human); compound 1.0 µM): 65%
SMILES: Cc1cc(NC(=O)c2cccc(NC(=O)/C=C/CN(C)C)c2)ccc1Nc1nccc(-c2cccnc2)n1
